Laboratory results as given in US20090068290A1, “BIFEPRUNOX DOSES FOR TREATING SCHIZOPHRENIA” (priority 2006, published 2009).

What was measured:
[1] = system: adult subjects with schizophrenia; assay: CGI Improvement score, Clinical Study One; assay type: in vivo, human; design: Actual Value of CGI Improvement Score, Median / CGI Improvement Score, Trt Effect: scale not given here
Method: There were five treatment groups in this study. […] Study medication was administered once daily. After Baseline measurements were performed, the titration phase was begun. Bifeprunox treated subjects were titrated up to 5 mg, 10 mg or 20 mg according to a standardized titration schedule (Day 1: 0.125 mg, Day 2: 0.25 mg, Day 3: 0.5 mg, Day 4: 1.0 mg, Day 5: 2.0 mg, Day 6: 5.0 mg, Day 7: 10.0 mg, Day 8: 20 mg). When the assigned dose was reached, subjects were maintained at that dose for the remainder of the six-week treatment period.
The change in the Positive and Negative Symptom Scale (PANSS) total score, from baseline to endpoint, was the primary outcome measure. Secondary efficacy measures included: PANSS positive, PANSS negative, PANSS general psychopathology (GPP) score, PANSS-derived Brief Psychiatric Rating Scale (BPRS) score, Clinical Global Impressions-Severity of Illness (CGI-S), CGI-Improvement (CGI-I) scores, and responder rates. Safety and tolerability evaluations included extrapyramidal symptoms (EPS), weight gain, lipid profile, and serum prolactin.

[2] = system: adult subjects with schizophrenia; assay: PANSS negative symptom subscale score, Clinical Study Three; assay type: in vivo, human; conditions: for Change from Baseline in PANSS Negative Symptom Subscale Score, Mean (SD) / Change from Baseline in PANSS Negative Symptom Subscale Score, Median / Trt Effect (bifeprunox - placebo), PANSS Negative Symptom Subscale Score: LOCF, ITT population; for Trt Effect (bifeprunox - placebo), PANSS Negative Symptom Subscale Score: ANCOVA
Description: SECONDARY OBJECTIVES To assess the efficacy of bifeprunox in treating schizophrenia using the Positive Symptom sub-scale score of the PANSS, the Negative Symptom sub-scale score of the PANSS, the General Psychopathology sub-scale of the PANSS, Brief Psychiatric Rating Scale (BPRS) total score derived from the PANSS, BPRS psychosis score derived from the PANSS, the Clinical Global Impression Severity of Illness score (CGI-S), the Clinical Global Impression Improvement score (CGI-I), CGI-I responder rate, PANSS responder rate based on the PANSS total score, Calgary Depression Scale for Schizophrenia (CDSS), and Subject Satisfaction rating.
There were four treatment arms in this study, approximately 144 subjects per arm. […] After completing the Single-Blind Placebo Lead-in Period of at least three days, bifeprunox-treated subjects were titrated from 0.25 mg up to 20 mg/day or 30 mg/day according to a standardized titration scheme over a seven- or eight-day period, respectively. When the assigned dose was reached, subjects were maintained at that dose for the remainder of the six week treatment period. […] Subjects were hospitalized (if not already inpatients) after eligibility for study entry was verified, starting from the Screening Visit until at least 10 days after Baseline. Subjects could be hospitalized longer than 10 days if considered medically necessary by the Investigator. Rating scale assessments for efficacy and abnormal movement disorders were done weekly except for Week 5. […] Subject satisfaction with study medication was assessed at Week 6.

[3] = Bifeprunox 20 mg, Week 6/Endpoint
[4] = Bifeprunox 30 mg, Week 6/Endpoint

## O=c1[nH]c2cccc(N3CCN(Cc4cccc(-c5ccccc5)c4)CC3)c2o1 [Bifeprunox, 7-[4-([1,1′-biphenyl]-3-ylmethyl)-1-piperazinyl]-2(3H)-benzoxazolone]
[1]; 5 mg versus placebo, Endpoint LOCF
  CGI Improvement Score, Trt Effect: −0.28
[1]; 5 mg, Endpoint LOCF
  Actual Value of CGI Improvement Score, Mean (S.D.): 3.33 (1.37)
  Actual Value of CGI Improvement Score, Median: 3.0
[1]; 5 mg, Week 1, LOCF
  Actual Value of CGI Improvement Score, Mean (S.D.): 3.76 (0.85)
  Actual Value of CGI Improvement Score, Median: 4.0
[1]; 5 mg, Week 2, LOCF
  Actual Value of CGI Improvement Score, Mean (S.D.): 3.46 (1.10)
  Actual Value of CGI Improvement Score, Median: 3.0
[1]; 5 mg, Week 3, LOCF
  Actual Value of CGI Improvement Score, Mean (S.D.): 3.2 (1.27)
  Actual Value of CGI Improvement Score, Median: 3.0
[1]; 5 mg, Week 4, LOCF
  Actual Value of CGI Improvement Score, Mean (S.D.): 3.37 (1.35)
  Actual Value of CGI Improvement Score, Median: 3.0
[1]; 10 mg versus placebo, Endpoint LOCF
  CGI Improvement Score, Trt Effect: 0.28
[1]; 10 mg, Endpoint LOCF
  Actual Value of CGI Improvement Score, Mean (S.D.): 3.90 (1.39)
  Actual Value of CGI Improvement Score, Median: 4.0
[1]; 10 mg, Week 1, LOCF
  Actual Value of CGI Improvement Score, Mean (S.D.): 3.88 (1.00)
  Actual Value of CGI Improvement Score, Median: 4.0
[1]; 10 mg, Week 2, LOCF
  Actual Value of CGI Improvement Score, Mean (S.D.): 3.71 (1.23)
  Actual Value of CGI Improvement Score, Median: 4.0
[1]; 10 mg, Week 3, LOCF
  Actual Value of CGI Improvement Score, Mean (S.D.): 3.79 (1.32)
  Actual Value of CGI Improvement Score, Median: 4.0
[1]; 10 mg, Week 4, LOCF
  Actual Value of CGI Improvement Score, Mean (S.D.): 3.86 (1.35)
  Actual Value of CGI Improvement Score, Median: 4.0
[1]; 20 mg versus placebo, Endpoint LOCF
  CGI Improvement Score, Trt Effect: −0.21
[1]; 20 mg, Endpoint LOCF
  Actual Value of CGI Improvement Score, Mean (S.D.): 342 (1.30)
  Actual Value of CGI Improvement Score, Median: 3.0
[1]; 20 mg, Week 1, LOCF
  Actual Value of CGI Improvement Score, Mean (S.D.): 3.54 (0.99)
  Actual Value of CGI Improvement Score, Median: 4.0
[1]; 20 mg, Week 2, LOCF
  Actual Value of CGI Improvement Score, Mean (S.D.): 3.30 (114)
  Actual Value of CGI Improvement Score, Median: 3.0
[1]; 20 mg, Week 3, LOCF
  Actual Value of CGI Improvement Score, Mean (S.D.): 3.31 (1.19)
  Actual Value of CGI Improvement Score, Median: 3.0
[1]; 20 mg, Week 4, LOCF
  Actual Value of CGI Improvement Score, Mean (S.D.): 3.35 (1.29)
  Actual Value of CGI Improvement Score, Median: 3.0
[2]; Bifeprunox 20 mg, Week 1
  Change from Baseline in PANSS Negative Symptom Subscale Score, Mean (SD): −1.5 (3.0)
  Change from Baseline in PANSS Negative Symptom Subscale Score, Median: −1
[2]; Bifeprunox 20 mg, Week 2
  Change from Baseline in PANSS Negative Symptom Subscale Score, Mean (SD): −2.7 (3.6)
  Change from Baseline in PANSS Negative Symptom Subscale Score, Median: −3
[2]; Bifeprunox 20 mg, Week 3
  Change from Baseline in PANSS Negative Symptom Subscale Score, Mean (SD): −3.2 (4.4)
  Change from Baseline in PANSS Negative Symptom Subscale Score, Median: −3
[2]; Bifeprunox 20 mg, Week 4
  Change from Baseline in PANSS Negative Symptom Subscale Score, Mean (SD): −3.3 (4.8)
  Change from Baseline in PANSS Negative Symptom Subscale Score, Median: −3
[2]; [3]
  Change from Baseline in PANSS Negative Symptom Subscale Score, Mean (SD): −3.3 (5.0)
  Change from Baseline in PANSS Negative Symptom Subscale Score, Median: −3
  Trt Effect (bifeprunox - placebo), PANSS Negative Symptom Subscale Score: −0.9
[2]; Bifeprunox 30 mg, Week 1
  Change from Baseline in PANSS Negative Symptom Subscale Score, Mean (SD): −1.3 (4.0)
  Change from Baseline in PANSS Negative Symptom Subscale Score, Median: −1
[2]; Bifeprunox 30 mg, Week 2
  Change from Baseline in PANSS Negative Symptom Subscale Score, Mean (SD): −1.9 (4.3)
  Change from Baseline in PANSS Negative Symptom Subscale Score, Median: −1
[2]; Bifeprunox 30 mg, Week 3
  Change from Baseline in PANSS Negative Symptom Subscale Score, Mean (SD): −2.5 (4.8)
  Change from Baseline in PANSS Negative Symptom Subscale Score, Median: −2
[2]; Bifeprunox 30 mg, Week 4
  Change from Baseline in PANSS Negative Symptom Subscale Score, Mean (SD): −2.6 (5.0)
  Change from Baseline in PANSS Negative Symptom Subscale Score, Median: −2
[2]; [4]
  Change from Baseline in PANSS Negative Symptom Subscale Score, Mean (SD): −3.1 (5.2)
  Change from Baseline in PANSS Negative Symptom Subscale Score, Median: −2
  Trt Effect (bifeprunox - placebo), PANSS Negative Symptom Subscale Score: −0.6
[2]; bifeprunox 20 mg, Endpoint LOCF
  PANSS Negative Symptom subscale score, treatment effect (bifeprunox—placebo): −0.9
